These results are taken from patent US8673890B2, “2,3-dihydro-1H-isoindol-1-imine derivatives useful as thrombin PAR-1 receptor antagonist” (Janssen Pharmaceutica NV, priority 2009, dated 2014).

Several values for one entry are separate records, joined by “and”; a condition that tells them apart may be missing. Equal entries are not always repeated.

For orientation: IC50 means the midpoint of a concentration-inhibition curve.

For assay [1], the system named is platelets in platelet-rich plasma. Nature of the assay: Har peptide-induced platelet aggregation in platelet-rich plasma. The format is cell-based, human. Conditions: Homo sapiens, Platelet, multiple values = individual measurements. As to the method:
(§1) The procedure for this assay is similar to that described in Biological Example 2, above. Briefly, platelet aggregation studies were performed according to the method of Bednar et al. (Bednar, B., Condra, C., Gould, R. J., and Connolly, T. M., Thromb. Res., 77:453-463 (1995)). Platelet-rich plasma (PRP) concentrates prepared from healthy volunteers who were aspirin free for at least 7 days by venipuncture using EDTA as anticoagulant was purchased from Biological Specialties, Inc. (Colmar, Pa.). PPP (platelet-poor-plasma) was obtained by centrifugation of PRP at Max (3,000 rpms) for 15 min at room temperature. PRP was diluted to yield platelet count of 300×10^3 platelets/μL with PPP. For thrombin induced platelet aggregation: 118 μL of 500 mM GPRP-NH2 was added to 12 mL of 300×10^3 platelets before using (to clean the fibrinogen in the plasma.) GPRP was added just before the experiment. 15 μL of test compound solutions were added to 120 μL of platelets 5 min prior the agonist additions. Platelet aggregation was initiated by the addition of agonist shown to achieve 60-70% aggregation. Antagonist potency was estimated as a % inhibition of the control Har peptide or thrombin response to obtain an IC50.
(§2) Where multiple values are listed for a particular compound, said numbers represent individual measurements (tests) for said compound.

The target in assay [2] is T1, thrombin receptor (PAR-1) (Homo sapiens, UniProt P25116).
T1 construct: Human aortic smooth muscle cells (HSMC) were purchased from Cascade Biologics; host or cells: human aortic smooth muscle cells (HSMC)
T1 sequence (P25116 22-425): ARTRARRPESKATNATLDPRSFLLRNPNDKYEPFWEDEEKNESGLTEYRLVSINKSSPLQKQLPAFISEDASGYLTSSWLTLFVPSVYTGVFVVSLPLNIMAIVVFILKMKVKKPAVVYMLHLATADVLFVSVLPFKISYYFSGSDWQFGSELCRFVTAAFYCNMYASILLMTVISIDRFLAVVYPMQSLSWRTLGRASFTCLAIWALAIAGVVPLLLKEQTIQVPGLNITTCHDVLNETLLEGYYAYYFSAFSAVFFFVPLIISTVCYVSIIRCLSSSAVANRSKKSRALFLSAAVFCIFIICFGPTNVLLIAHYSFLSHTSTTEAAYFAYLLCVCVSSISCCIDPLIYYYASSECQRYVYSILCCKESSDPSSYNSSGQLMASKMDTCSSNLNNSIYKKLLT
Nature of the assay: FLIPR-based calcium-flux assay with human smooth muscle cells (Har peptide agonist). As to conditions: HSMC; 30 nM Har (PAR1) peptide agonist; 80-min drug incubation; multiple values = individual measurements. The format is cell-based. The method, then: Human aortic smooth muscle cells (HSMC) were purchased from Cascade Biologics (Portland, Oreg.) and cultured in M-231 containing smooth muscle cell growth supplement and 1× Antibiotic-Antimycotic.
To determine agonist concentration for compound testing: On the day prior to the assay, 100 μL of cells (2×10^5/mL) were seeded in clear, flat-bottom black-wall, tissue culture treated polystyrene 96-well plates and incubated at 37° C., 5% CO2. On the day of the assay, 50 μL of complete dye loading solution (FLIPR Calcium 3 Kit, Molecular Devices) was added to each well containing 100 μL of culture media. The cells were incubated for 30-45 min at 37° C., in 5% CO2 before initiating the assay on the FLIPR. The agonist effect of PAR1 peptide (S-(p-F-Phe)-Har-L-Har-KY-NH2; Har=homoarginine; referred to herein as “Har” peptide) was tested and the EC50 was determined. The EC60-70 dose was used (30 nM) for compound testing.
Compound testing: On the day prior to the assay, 90 μL of cells (2.2×10^5/mL) were seeded in clear, flat-bottom black-wall, tissue culture treated polystyrene 96-well plates and incubated at 37° C., 5% CO2. On the day of the assay, the test compounds were prepared at 10× in 3% DMSO Hanks buffer and 10 μL was added to each well (final DMSO concentration of 0.3%). The cells were incubated 20 min at 37° C., 5% CO2. Culture medium containing testing compounds was dumped and the cells were washed four times with DPBS containing 0.1% of BSA and re-fed with 80 μL of growth medium. 70 μL of BD (fluorescent) dye was loaded to the cells and incubated 45 min at 37° C. incubator. The plates were equilibrated to room temperature for 15 min. 4× PAR1 peptide (30 nM final concentration) agonist plate and the cell plate were placed in FLIPR's assay chamber. 50 μL agonist was added to the cells and data was recorded for 5 min. Raw fluorescence data was exported for each well and tabulated versus time within an ASCII file. Data was then imported into Excel® and the peak response over basal level was determined. The percent inhibition for each test compound was calculated by the changes of fluorescent density as a % inhibition of the control Har peptide response to obtain an IC50.
Representative compounds of the present invention were tested according to the procedure described in Biological Example 1 above, with results in Table 8 below. In Table 8 below, where multiple values are listed for a particular compound, said numbers represent individual measurements (tests) for said compound.

For assay [3], the system named is washed platelets. Description: Har peptide-induced platelet aggregation in washed platelets. The format is cell-based. As to conditions: Homo sapiens. The method, then: (§3) Platelet aggregation studies were performed according to the method of Bednar et al. (Bednar, B., Condra, C., Gould, R. J., and Connolly, T. M., Thromb. Res., 77:453-463 (1995)). Platelet-rich plasma (PRP) concentrates prepared from healthy volunteers who were aspirin free for at least 7 days by venipuncture using ACD-A as anticoagulant was purchased from Biological Specialties, Inc. (Colmar, Pa.). PRP was centrifuged at 730 g for 15 min. The platelet pellet was washed twice in CGS buffer (13 mM sodium citrate, 30 mM glucose, 120 mM NaCl, pH 6.5) containing 1 U/ml apyrase (grade V, Sigma-Aldrich, St. Louis, Mo.), 1 mM EGTA, and re-suspended in Tyrode's buffer (140 mM NaCl, 2.7 mM KCl, 12 mM NaHCO3, 0.76 mM Na2HPO4, 5.5 mM dextrose, 5.0 mM HEPES, 0.2% BSA, pH 7.4). The platelets were diluted to 3×10^8 platelets/ml and kept >45 min at 37° C. before use. 105 μl of washed platelets, 2 mM CaCl2 and […] of fibrinogen (for PAR-1 peptide-induced platelet aggregation only) were added to a 96-well microliter plate. Platelet aggregation was initiated by the addition of serial concentrations of Har peptide or thrombin (Alpha; American Diagnostica, Cat. # 470HT, 2,500 NIH Units/mg). Buffer was added to one set of control wells. The assay plate was stirred constantly and intermittently placed in a microplate reader (Softmax, Molecular Devices, Menlo Park, Calif.) to read optical density (650 nm) at 0 and 5 minutes after the addition of the compound solutions. Aggregation was calculated as the decrease in optical density between the time 0- and 5-min measurements and expressed as % of aggregation.
(§4) For the inhibition assay, platelet aggregation measurements were conducted as described, with the additional step of test compound addition. Compounds were prepared in 100% DMSO and stored. On the day of the experiment, the compounds were diluted in the Tyrode's buffer containing 3% of DMSO as a 10× working solution. 15 μl of test compound solutions were added to 105 μl of platelets 5 min prior to CaCl2 and fibrinogen additions. Platelet aggregation was initiated by the addition of agonist shown to achieve 60-70% aggregation. Antagonist potency was estimated as a % inhibition of the control Har peptide or thrombin response to obtain an IC50.
(§5) Representative compounds of the present invention were tested according to the procedure described in Biological Example 2 above, with results in Table 9 below. In Table 9 where multiple values are listed for a particular compound, said numbers represent individual measurements (tests) for said compound.

The test system of assay [4] is washed platelets. Description: Thrombin-induced platelet aggregation in washed platelets. The class given is cell-based, human. Conditions: for IC50: Homo sapiens, Platelet. The method, then:
as §3, §4, §5

Assay [5] deals with platelets in platelet-rich plasma. Description: Thrombin-induced platelet aggregation in platelet-rich plasma. The format is cell-based, human. As to conditions: multiple values = individual measurements. As to the method:
as §1, §2

Consider `COc1c(N2CCOCC2)cc(C(=O)CN2Cc3cc4c(cc3C2=N)OCc2cc3c(cc2CO4)OCO3)cc1C(C)(C)C` [Compound 59], for which the IC50 in assay [1] amounted to 6120 nM; in assay [2] it was 0.371 µM; in the assay with washed platelets [3] it was 1.25 µM; in the assay on washed platelets [4], 2.11 µM.

`COC(=O)c1ccc2c(c1)COc1cc3c(cc1OC2)CN(CC(=O)c1cc(N2CCOCC2)c(OC)c(C(C)(C)C)c1)C3=N` [Compound 73]: the half-maximal inhibitory concentration (IC50) in assay [1] was 6710 nM; in assay [2], 0.047 µM and 0.057 µM; in the assay with washed platelets [3], 0.446 µM; in the assay with washed platelets [4] it was 0.813 µM; in assay [5] it was 2430 nM and > 10000 nM.

In the case of `COc1c(N2CCOCC2)cc(C(=O)CN2Cc3cc4c(cc3C2=N)OCc2nccnc2CO4)cc1C(C)(C)C` [Compound 58], the concentration for half-maximal inhibition (IC50) in assay [1] worked out at 749 nM; in assay [2], 0.103 µM; with washed platelets [3], 0.214 µM; with washed platelets [4] it was 0.304 µM; in assay [5] (Homo sapiens, Platelet), 803 nM.

Turning to `Cc1sc(C)c2c1COc1cc3c(cc1OC2)C(=N)N(CC(=O)c1cc(C(C)(C)C)c(O)c(C(C)(C)C)c1)C3` [Compound 74], the half-maximal inhibitory concentration (IC50) in assay [1] was greater than 10000 nM; in assay [2], 0.15 µM and 0.16 µM; with washed platelets [3], 0.779 µM; in assay [5] (Homo sapiens, Platelet) it was greater than 10000 nM; in assay [5], greater than 10000 nM. In addition, the “Washed platelet aggregation IC50 (μM) Thrombin” value in the assay with washed platelets [4] was “variable”.

Regarding `COc1c(C(C)(C)C)cc(C(=O)CN2Cc3cc4c(cc3C2=N)OCc2ncccc2CO4)cc1C(C)(C)C` [Compound 75], the IC50 in assay [1] is 3040 nM; in assay [2] it was 0.39 µM and 0.46 µM; in the assay on washed platelets [3], 0.183 µM; in the assay on washed platelets [4], greater than 10 µM; in assay [5], 2190 nM and > 10000 nM.

On to `COc1c(C(C)(C)C)cc(C(=O)CN2Cc3cc4c(cc3C2=N)OCc2cccnc2CO4)cc1C(C)(C)C` [Compound 76], for which the IC50 in assay [1] was 2060 nM; in assay [2] it was 0.58 µM; in the assay with washed platelets [3], 0.309 µM; with washed platelets [4], greater than 10 µM; in assay [5] (Homo sapiens, Platelet), greater than 10000 nM; in assay [5], greater than 10000 nM.

With `CC(C)(C)c1cc(C(=O)CN2Cc3cc4c(cc3C2=N)OCc2ncccc2CO4)cc(C(C)(C)C)c1O` [Compound 49], the IC50 was 390 nM in assay [1]; 0.019 µM and 0.059 µM and 0.023 µM and 0.038 µM in assay [2]; 0.068 µM in the assay with washed platelets [3]; 0.107 µM in the assay on washed platelets [4]; 690 nM and 2430 nM in assay [5].
